In the assay the test system is vacuole formation in cells exposed to a vacuolin. As to the kind of experiment: Conditions under which vacuole formation is blocked in cells exposed to a vacuolin. The class given is cell-based. The note with it: FIGS. 8-10. The source says:
Additional studies were directed at identifying conditions under which vacuole formation is blocked (see, for example, FIGS. 8-10). […] It is likely that the intravacuolar pH is higher than the low pH of lysosomes; the vacuoles are likely to accumulate Cl ions (see, for example, FIG. 11).

In the case of `CO/C1=C\C(C)=C\[C@@H](C)[C@@H](O)[C@@H](C)C/C(C)=C/C=C/[C@H](OC)[C@@H]([C@@H](C)[C@@H](O)[C@H](C)[C@@]2(O)C[C@@H](O)[C@H](C)[C@@H](C(C)C)O2)OC1=O` [bafilomycin A], the “effect on vacuole formation in cells exposed to a vacuolin” value is “inhibited”.

These data come from patent US20060019951A1, “Vacuolins” (CBR Institute for Biomedical Research, priority 2002, published 2006).
